# Source: patent publication US20120196899A1, “METHODS AND PRODUCTS FOR TREATING INFLAMMATION” (Rock Creek Pharmaceuticals, Inc., priority 2010, published 2012)
# Where “and” joins values, the source holds several entries; their conditions need not be identical. Equal entries are not always repeated. Entries after “also recorded” stand apart in the source; their conditions may differ.
# Experiments:
# [1] = nicotine 1.25 mg/kg (1 female) and 1.0 mg/kg (3 females) single i.v.
# Experimental: One control group of animals received a single i.v. dose of the vehicle at 5 mL/kg. Ten rats (5 males and 5 females) were dosed per group. […] One female received a single i.v. dose of 1.25 mg/kg, and 3 females received a single i.v. dose of 1.0 mg/kg.
# Following the tolerability study, an additional group was added to the study. […] All animals were observed daily. Body weight and food consumption was measured daily, with any abnormal observations noted. Average daily body weights and food consumption was tabulated with standard deviation calculated.
# [2] = Urinalysis, day 15; format: in vivo, Sprague-Dawley rats; conditions: Dose is 0.75 mg/kg nicotine
# Excerpt: (§1) On day 15, urine was collected on all surviving animals for urinalysis. The animals were euthanized and bled via cardiac puncture. Blood was collected for hematology, clinical chemistry, and coagulation analysis. Tissues were collected, weighed, and stored in 10% neutral-buffered formalin for possible future analysis.
# There were no notable differences between the active treatment groups and controls and the observations are all consistent with those expected for this species.
# [3] = molecular target: T1, nAChR α4/β2 (Homo sapiens, UniProt P17787+P43681); format: cell-based; conditions: 100 μM Ach + 0.3 μM epibatidine; not concentration-dependent, IC50 not determinable
# T1 construct: host or cells: HEK293 cells, transient transfection
# Experimental: The following three (3) channels were evaluated: • 1. nAChR α3/β4 (encoded by the human CHRNA3 and CHRNB4 gene and stably expressed in CHO cells); • 2. nAChR α4/β2 (CHRNA4 and CHRNB2 gene and transiently expressed in HEK293 cells); and • 3. nAChR α7 (encoded by the human nicotinic α7 gene coexpressed in CHO cells with the chaperone RIC-3 encoded by the human RIC3 gene).
# The ability of each test article to act as an agonist, a positive allosteric modulator or antagonist of three nAChR receptor channels was evaluated in the presence of 0.1 atropine. Both test articles were evaluated for responses on each nAChR channel at eight (8) concentrations: 0.3, 1, 3, 10, 30, 100, 300, and 1000 μM (n=4 for each concentration).
# HEK293 or CHO cells were transiently or stably transfected with the appropriate human ion channel cDNAs. Stable transfectants were selected by coexpression with the antibiotic-resistance gene(s) incorporated into the expression plasmid(s). […]
# For FLIPR TETRA™ assay, cells were plated in 384-well black wall, flat clear bottom microtiter plates (Type: BD Biocoat Poly-D-Lysine Multiwell Cell Culture Plate) at 20,000 to 30,000 cells per well (384-well plate). Cells were incubated at 37° C. overnight or until the cells reached a sufficient density in the wells (near confluent monolayer) to use in fluorescence assays. […]
# [4] = Hematology, day 15; format: in vivo, Sprague-Dawley rats; conditions: for EOSINOPHIL / HCT / HGB / LYMPHOCYTE / MCH / MCHC / MCV / MONOCYTE / NEUTROPHIL SEG / PLATELET COUNT / RBC / RE[…] / WBC: 0.75 mg/kg, group mean
# Excerpt: as §1
# [5] = Body weights, weight gain and food consumption over 14 days after single i.v. dose; format: in vivo, Sprague-Dawley rats; conditions: for Mean food consumption/day / Mean weigth increase by day 14 / day 13 B.W. / day 14 B.W. / B.W. day 1 / B.W. day 2 / B.W. day 3 / B.W. day 4 / B.W. day 5 / B.W. day 6 / B.W. day 7 / B.W. day 8 / B.W. day 9 / B.W. day 10 / B.W. day 11 / B.W. day 12: nicotine 0.75 mg/kg single i.v.; for day 13 B.W. / day 14 B.W. / B.W. day 1 / B.W. day 2 / B.W. day 3 / B.W. day 4 / B.W. day 5 / B.W. day 6 / B.W. day 7 / B.W. day 8 / B.W. day 9 / B.W. day 10 / B.W. day 11 / B.W. day 12 / Average Daily Food Consumption per Rat: tartrate; for B.W. day 1 / B.W. day 2 / B.W. day 3 / B.W. day 4 / B.W. day 5 / B.W. day 6 / B.W. day 7 / B.W. day 8 / B.W. day 9 / B.W. day 10 / B.W. day 11 / B.W. day 12: individual animals; for Average Daily Food Consumption per Rat: nicotine 0.75 mg/kg, per cage (cage 1, 2)
# Experimental: Body weight and food consumption was measured daily for 14 days. On day 15, urine was collected on all surviving animals. The animals were euthanized and bled via cardiac puncture, and blood was collected for analysis. Tissues were collected, weighed, evaluated for gross abnormalities, and stored in 10% neutral-buffered formalin.
# All animals were observed daily.
# [6] = individual animals E1-E10 (M and F)
# [7] = individual animals E1-E10 (M and F), tartrate, 0.75 mg/kg
# T1 sequence (P17787 26-502): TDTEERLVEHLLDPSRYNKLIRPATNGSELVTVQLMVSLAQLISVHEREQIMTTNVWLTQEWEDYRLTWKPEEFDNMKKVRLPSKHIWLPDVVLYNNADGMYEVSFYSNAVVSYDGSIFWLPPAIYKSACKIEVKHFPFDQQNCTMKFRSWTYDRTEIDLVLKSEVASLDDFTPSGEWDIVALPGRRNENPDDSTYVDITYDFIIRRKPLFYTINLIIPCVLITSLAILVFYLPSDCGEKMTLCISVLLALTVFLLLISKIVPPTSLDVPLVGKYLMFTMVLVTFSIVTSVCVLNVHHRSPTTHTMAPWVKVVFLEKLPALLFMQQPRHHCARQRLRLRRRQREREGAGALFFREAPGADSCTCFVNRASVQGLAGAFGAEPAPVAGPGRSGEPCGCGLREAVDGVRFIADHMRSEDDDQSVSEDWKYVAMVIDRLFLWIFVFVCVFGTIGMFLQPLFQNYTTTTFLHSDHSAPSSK
# T1 sequence (P43681 29-627): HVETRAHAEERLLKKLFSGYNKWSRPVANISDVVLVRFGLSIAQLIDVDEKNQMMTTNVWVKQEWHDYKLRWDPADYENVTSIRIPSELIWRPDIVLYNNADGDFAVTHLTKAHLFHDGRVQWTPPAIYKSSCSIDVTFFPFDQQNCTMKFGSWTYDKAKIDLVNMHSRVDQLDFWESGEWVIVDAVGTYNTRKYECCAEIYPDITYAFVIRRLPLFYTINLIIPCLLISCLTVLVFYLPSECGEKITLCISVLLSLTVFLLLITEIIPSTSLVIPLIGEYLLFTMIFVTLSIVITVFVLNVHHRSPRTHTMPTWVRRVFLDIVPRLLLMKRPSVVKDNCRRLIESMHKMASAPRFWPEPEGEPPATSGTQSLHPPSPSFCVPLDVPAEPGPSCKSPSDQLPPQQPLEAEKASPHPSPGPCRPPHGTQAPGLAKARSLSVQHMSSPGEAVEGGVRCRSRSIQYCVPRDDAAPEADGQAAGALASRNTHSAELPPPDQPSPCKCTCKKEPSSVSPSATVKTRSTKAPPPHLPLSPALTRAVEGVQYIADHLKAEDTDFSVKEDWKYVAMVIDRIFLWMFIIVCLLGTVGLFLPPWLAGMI
structure (smiles),measurement,setting,value
"CN1CCCC1c1cccnc1.O=C(O)C(O)C(O)C(=O)O (single isomer, unassigned; (-)) [Nicotine, (−) Nicotine hydrogen tartrate, reference compound]",clinical signs in tolerability study,[1],"experienced severe tremors upon completion of dosing, but all returned to normal by 20 minutes post dose"
same,Urinalysis VOLUME,[2]; animal E6 (F),10 UL
same,Urinalysis CLARITY,[2]; [6],HAZY
same,Urinalysis COLOR,[2]; [6],YELLOW
same,Urinalysis GLUCOSE,[2]; [6],NEGATIVE
same,Urinalysis KETONES,[2]; [6],NEGATIVE
same,Urinalysis UROBILINOGEN,[2]; [6],NORMAL
same,Urinalysis VOLUME,[2]; [6],<0.5 mL
same,Urinalysis PROTEIN,[2]; [7],NEGATIVE; also recorded: TRACE
same,Urinalysis SPEC GRAVITY,[2]; [7],1.054 and 1.058 and 1.046 and 1.047 and 1.052
same,Urinalysis pH,[2]; [7],6 and 6.5 (2×) and 7 and 7.5
same,inhibition of receptor activity,[3],inhibited receptor activity
same,EOSINOPHIL,[4]; female,0.0%
same,HCT,[4]; female,46.7%
same,HGB,[4]; female,16.0 g/dL
same,LYMPHOCYTE,[4]; female,86.3%
same,MCH,[4]; female,19.9 pg
same,MCHC,[4]; female,34.2%
same,MCV,[4]; female,58.7 fL
same,MONOCYTE,[4]; female,1.0%
same,NEUTROPHIL SEG,[4]; female,12.7%
same,PLATELET COUNT,[4]; female,1.363e+06 µL⁻¹
same,RBC,[4]; female,8e+06 µL⁻¹
same,RE[…],[4]; female,5.1%
same,WBC,[4]; female,10200 µL⁻¹
same,mean corpuscular volume (MCV) and mean corpuscular hemoglobin (MCH),"[4]; females, anatabine […], nicotine 0.75 mg/kg single i.v.","small, but statistically significant decreases"
same,EOSINOPHIL,[4]; male,0.0%
same,HCT,[4]; male,46.6%
same,HGB,[4]; male,15.8 g/dL
same,LYMPHOCYTE,[4]; male,85.8%
same,MCH,[4]; male,20.9 pg
same,MCHC,[4]; male,34.0%
same,MCV,[4]; male,61.5 fL
same,MONOCYTE,[4]; male,2.5%
same,NEUTROPHIL SEG,[4]; male,11.8%
same,PLATELET COUNT,[4]; male,1.3558e+06 µL⁻¹
same,RBC,[4]; male,7.6e+06 µL⁻¹
same,RE[…],[4]; male,5.2%
same,WBC,[4]; male,11400 µL⁻¹
same,Mean food consumption/day,[5]; Female,20.6 g
same,Mean weigth increase by day 14,[5]; Female,40.8 g
same,Mean food consumption/day,[5]; Male,26.4 g
same,Mean weigth increase by day 14,[5]; Male,98.5 g
same,day 13 B.W.,[5]; individual female rats,232.6 g and 251.8 g and 227.3 g
same,day 14 B.W.,[5]; individual female rats,230.4 g and 249 g and 229 g
same,day 13 B.W.,[5]; individual male rats,330 g and 312.3 g and 292.4 g and 299.4 g
same,day 14 B.W.,[5]; individual male rats,339.2 g and 316.1 g and 297.6 g and 305 g
same,B.W. day 1,"[5]; day 1, female rats",191.6 g and 206.1 g and 192.8 g
same,B.W. day 1,"[5]; day 1, male rats",227 g and 228 g and 223 g and 219 g
same,B.W. day 2,"[5]; day 2, female rats",190.5 g and 213.4 g and 195.7 g
same,B.W. day 2,"[5]; day 2, male rats",234.9 g and 239.1 g and 229.5 g and 229.1 g
same,B.W. day 3,"[5]; day 3, female rats",198 g and 217.1 g and 199.1 g
same,B.W. day 3,"[5]; day 3, male rats",243 g and 245.1 g and 241.1 g and 238.4 g
same,B.W. day 4,"[5]; day 4, female rats",207.8 g and 223.8 g and 205.6 g
same,B.W. day 4,"[5]; day 4, male rats",260.5 g and 263.4 g and 257.6 g and 252.9 g
same,B.W. day 5,"[5]; day 5, female rats",212.3 g and 226.3 g and 206.4 g
same,B.W. day 5,"[5]; day 5, male rats",272.1 g and 269.1 g and 260.7 g and 258.7 g
same,B.W. day 6,"[5]; day 6, female rats",207 g and 228.9 g and 205.5 g
same,B.W. day 6,"[5]; day 6, male rats",259 g and 275.4 g and 270 g and 262.8 g
same,B.W. day 7,"[5]; day 7, female rats",213 g and 240.1 g and 218.3 g
same,B.W. day 7,"[5]; day 7, male rats",279.9 g and 295.8 g and 288 g and 277.8 g
same,B.W. day 8,"[5]; day 8, female rats",218 g and 237.4 g and 217.4 g
same,B.W. day 8,"[5]; day 8, male rats",284 g and 293.7 g and 285.6 g and 278 g
same,B.W. day 9,"[5]; day 9, female rats",219.1 g and 236.4 g and 213.2 g
same,B.W. day 9,"[5]; day 9, male rats",274.9 g and 303.5 g and 285.6 g and 274.6 g
same,B.W. day 10,"[5]; day 10, female rats",221.8 g and 240.1 g and 220.5 g
same,B.W. day 10,"[5]; day 10, male rats",286.1 g and 314.2 g and 301 g and 283.4 g
same,B.W. day 11,"[5]; day 11, female rats",222.8 g and 244.5 g and 226 g
same,B.W. day 11,"[5]; day 11, male rats",292.2 g and 317.7 g and 300.1 g and 291.5 g
same,B.W. day 12,"[5]; day 12, female rats",232.1 g and 248.9 g and 227.7 g
same,B.W. day 12,"[5]; day 12, male rats",290.7 g and 329.5 g and 303 g and 287.3 g
same,Average Daily Food Consumption per Rat,"[5]; female, day 1",23.7 grams and 14.8 grams
same,Average Daily Food Consumption per Rat,"[5]; female, day 2",18.4 grams and 24.9 grams
same,Average Daily Food Consumption per Rat,"[5]; female, day 3",22.2 grams and 22.3 grams
same,Average Daily Food Consumption per Rat,"[5]; female, day 4",19.4 grams and 15.8 grams
same,Average Daily Food Consumption per Rat,"[5]; female, day 5",18.7 grams and 16.2 grams
same,Average Daily Food Consumption per Rat,"[5]; female, day 6",20.0 grams and 17.2 grams
same,Average Daily Food Consumption per Rat,"[5]; female, day 7",19.4 grams and 21.7 grams
same,Average Daily Food Consumption per Rat,"[5]; female, day 8",20.1 grams and 20.6 grams
same,Average Daily Food Consumption per Rat,"[5]; female, day 9",24.4 grams and 21.5 grams
same,Average Daily Food Consumption per Rat,"[5]; female, day 10",22.6 grams and 20.4 grams
same,Average Daily Food Consumption per Rat,"[5]; female, day 11",20.4 grams and 20.3 grams
same,Average Daily Food Consumption per Rat,"[5]; female, day 12",22.5 grams and 21.7 grams
same,Average Daily Food Consumption per Rat,"[5]; female, day 13",23.7 grams and 21.2 grams
same,Average Daily Food Consumption per Rat,"[5]; female, day 14",24.4 grams and 19.6 grams
same,Average Daily Food Consumption per Rat,"[5]; males, day 1",20.8 grams and 19.3 grams
same,Average Daily Food Consumption per Rat,"[5]; males, day 2",26.2 grams and 23.5 grams
same,Average Daily Food Consumption per Rat,"[5]; males, day 3",26.6 grams and 26.2 grams
same,Average Daily Food Consumption per Rat,"[5]; males, day 4",26.2 grams and 23.7 grams
same,Average Daily Food Consumption per Rat,"[5]; males, day 5",25.1 grams and 21.9 grams
same,Average Daily Food Consumption per Rat,"[5]; males, day 6",23.8 grams and 25.9 grams
same,Average Daily Food Consumption per Rat,"[5]; males, day 7",26.5 grams and 27.9 grams
same,Average Daily Food Consumption per Rat,"[5]; males, day 8",24.0 grams and 28.2 grams
same,Average Daily Food Consumption per Rat,"[5]; males, day 9",27.3 grams and 26.1 grams
same,Average Daily Food Consumption per Rat,"[5]; males, day 10",29.6 grams and 30.9 grams
same,Average Daily Food Consumption per Rat,"[5]; males, day 11",30.1 grams and 29.1 grams
same,Average Daily Food Consumption per Rat,"[5]; males, day 12",26.5 grams and 23.4 grams
same,Average Daily Food Consumption per Rat,"[5]; males, day 13",31.9 grams and 28.4 grams
same,Average Daily Food Consumption per Rat,"[5]; males, day 14",32.7 grams and 26.4 grams
